According to patent US20220265646A1, “PIEZO AGONISTS FOR PREVENTING OR REVERTING ABNORMAL AMYLOID DEPOSITION” (ITÄ-SUOMEN YLIOPISTO, priority 2019, published 2022):

How the values were obtained:
native Piezo1Rs = target: T1, native Piezo1Rs (Homo sapiens, UniProt Q92508); test: Calcium imaging of Yoda1-evoked Ca2+ influx in hiPSC-derived microglia; format: cell-based; settings: 50 μM GdCI in BS pre-incubation
T1 construct: endogenous in cells; host or cells: human iPSC-derived microglia
Method: (§1) To study the calcium influx evoked by native Piezo1 Rs expressed in microglia cells the present inventors used short Yoda1 applications (2 s, 50 μM if not otherwise specified). For this purpose, human IPSO derived microglia cells and SV-40 (immortalized human microglia) cells were seeded on 7 mm cover slips 1 day prior to the imaging experiment. Cells were loaded with the calcium-sensitive fluorescent dye Fluo-4AM (5 μM) for 30 min at 37° C. Followed by wash-incubation for 15 min in Ab 20 μM, 50 μM GdCI and basic solution (BS) as a control at 37° C. The basic solution containing the following (BS, in mM): 2.5 KCl, 152 NaCl, 10 glucose, 2 CaCl2, and 10 HEPES at pH 7.4. Fluorescence was visualized using monochromatic light source (TILL Photonics GmbH) using Ex/Im 494/[…] and a CCD camera (SensiCam). Chemicals were applied using a fast perfusion system (RSC-200, BioLogic Science). To quantify the difference in the amplitude of calcium transients, the ratio values were normalized by subtracting a baseline and further divided by the amplitude of the calcium transient to the 2 sec application of the ionomycin. Data were pre-analyzed offline using the FEI offline analysis (TILL Photonics), and further analysis was automatized using MatLab. Quantitative data were expressed as means±SEM unless otherwise stated. Number of experiments is indicated by n. Significance assessed with the ANOVA test or Mann-Whitney t test for non-parametric data. Statistically significant differences were set at*p<0.05 and **p<0.01.
Differentiation of microglia. Differentiation of microglia was carried out as previously described with minor modifications (Abud et al., 2017). Shortly, on DO, iPSCs were dissociated to single cells with 0.5 mM EDTA or Accutase and were replated at a density of 6-,000-16,000 cells/cm2 on Matrigel in E8, 0.5% penicillin/streptomycin (P/S, 50 IU/50 […]), 5 ng/ml BMP4, 25 ng/ml activin a (both from Peprotech or Miltenyi Biotec), 1 μM CHIR 99021 (Axon or Stem Cell Technologies) and 10 μM Y-27632 to induce mesodermal differentiation. […]

Piezo1Rs = target: T2, Piezo1Rs (Homo sapiens, UniProt Q92508); test: Calcium imaging of Yoda1-evoked Ca2+ transients in SV-40 immortalized human microglia cell line; format: cell-based; settings: SV-40 cells, n=13, p=0.00009
T2 construct: SV-40 immortalized human microglia cell line which endogenously express Piezo-1 and Piezo2Rs was used; endogenous in cells; host or cells: SV-40 immortalized human microglia cell line
T2 sequence (Q92508 whole entry): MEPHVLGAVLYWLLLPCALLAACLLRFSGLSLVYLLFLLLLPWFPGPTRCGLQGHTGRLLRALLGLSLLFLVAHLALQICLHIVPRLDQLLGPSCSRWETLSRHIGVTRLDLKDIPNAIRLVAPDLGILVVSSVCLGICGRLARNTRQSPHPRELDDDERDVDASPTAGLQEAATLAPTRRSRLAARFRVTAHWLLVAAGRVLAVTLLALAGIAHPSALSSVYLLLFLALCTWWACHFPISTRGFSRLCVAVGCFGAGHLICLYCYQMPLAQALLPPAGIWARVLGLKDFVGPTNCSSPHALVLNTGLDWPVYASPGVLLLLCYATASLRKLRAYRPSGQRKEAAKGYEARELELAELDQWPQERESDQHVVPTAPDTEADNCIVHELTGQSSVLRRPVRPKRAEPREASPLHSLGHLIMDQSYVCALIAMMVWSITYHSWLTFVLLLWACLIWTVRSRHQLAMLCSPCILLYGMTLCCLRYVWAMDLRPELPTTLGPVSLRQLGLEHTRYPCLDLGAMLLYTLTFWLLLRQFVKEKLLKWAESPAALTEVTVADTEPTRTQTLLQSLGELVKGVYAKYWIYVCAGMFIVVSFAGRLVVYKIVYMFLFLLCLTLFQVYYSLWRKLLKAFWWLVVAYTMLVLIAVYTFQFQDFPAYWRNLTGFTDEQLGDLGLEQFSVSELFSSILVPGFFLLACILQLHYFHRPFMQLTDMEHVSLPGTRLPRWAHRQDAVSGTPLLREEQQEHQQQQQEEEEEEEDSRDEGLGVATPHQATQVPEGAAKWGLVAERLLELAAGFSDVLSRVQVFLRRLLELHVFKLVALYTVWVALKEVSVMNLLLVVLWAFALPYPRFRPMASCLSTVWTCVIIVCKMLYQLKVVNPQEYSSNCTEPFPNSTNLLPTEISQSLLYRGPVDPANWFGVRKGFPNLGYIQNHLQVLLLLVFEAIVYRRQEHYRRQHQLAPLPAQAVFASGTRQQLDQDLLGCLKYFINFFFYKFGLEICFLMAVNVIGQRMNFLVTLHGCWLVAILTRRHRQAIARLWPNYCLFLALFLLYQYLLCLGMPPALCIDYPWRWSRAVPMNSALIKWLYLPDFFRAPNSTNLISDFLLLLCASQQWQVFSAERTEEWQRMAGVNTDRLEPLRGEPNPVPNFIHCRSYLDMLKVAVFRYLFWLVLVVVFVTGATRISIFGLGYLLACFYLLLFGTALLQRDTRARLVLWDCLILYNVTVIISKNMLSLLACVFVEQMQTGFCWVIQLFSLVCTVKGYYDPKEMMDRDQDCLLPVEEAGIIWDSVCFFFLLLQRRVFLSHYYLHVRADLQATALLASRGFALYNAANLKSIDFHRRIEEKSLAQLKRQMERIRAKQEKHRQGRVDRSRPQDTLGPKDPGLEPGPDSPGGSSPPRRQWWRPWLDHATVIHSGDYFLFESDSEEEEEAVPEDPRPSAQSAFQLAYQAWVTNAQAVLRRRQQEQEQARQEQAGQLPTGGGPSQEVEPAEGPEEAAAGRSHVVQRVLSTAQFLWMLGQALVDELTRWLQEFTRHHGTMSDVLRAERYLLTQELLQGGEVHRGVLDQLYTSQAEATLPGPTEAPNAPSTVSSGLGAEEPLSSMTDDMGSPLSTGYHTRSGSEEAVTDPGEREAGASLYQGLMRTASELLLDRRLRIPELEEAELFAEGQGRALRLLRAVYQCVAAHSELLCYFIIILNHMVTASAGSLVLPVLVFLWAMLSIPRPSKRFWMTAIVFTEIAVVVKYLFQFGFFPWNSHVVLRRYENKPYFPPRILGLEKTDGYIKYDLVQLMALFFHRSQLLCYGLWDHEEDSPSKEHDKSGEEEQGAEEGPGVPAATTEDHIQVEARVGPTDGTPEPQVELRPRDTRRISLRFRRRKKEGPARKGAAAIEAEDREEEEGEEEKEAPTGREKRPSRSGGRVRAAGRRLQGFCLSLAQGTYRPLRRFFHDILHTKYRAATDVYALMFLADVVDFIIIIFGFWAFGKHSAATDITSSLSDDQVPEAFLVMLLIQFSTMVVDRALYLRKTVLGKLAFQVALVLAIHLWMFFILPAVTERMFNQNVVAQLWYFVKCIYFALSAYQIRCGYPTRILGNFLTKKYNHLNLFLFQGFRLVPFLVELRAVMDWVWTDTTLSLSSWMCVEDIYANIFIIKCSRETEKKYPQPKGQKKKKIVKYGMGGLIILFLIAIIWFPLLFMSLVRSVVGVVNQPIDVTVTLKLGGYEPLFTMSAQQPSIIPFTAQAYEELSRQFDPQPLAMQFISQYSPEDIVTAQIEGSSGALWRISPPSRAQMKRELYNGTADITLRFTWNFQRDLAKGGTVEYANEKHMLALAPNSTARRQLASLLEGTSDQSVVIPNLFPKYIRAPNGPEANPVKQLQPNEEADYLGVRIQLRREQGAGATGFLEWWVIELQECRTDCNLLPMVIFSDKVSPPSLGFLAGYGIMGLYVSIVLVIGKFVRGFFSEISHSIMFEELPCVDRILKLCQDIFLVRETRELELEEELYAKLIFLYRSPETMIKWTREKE
Method: as §1, with “Chemicals were applied using a fast perfusion system (RSC-200, BioLogic Science).” left out, “Number of experiments is indicated by n.” left out, “Statistically significant differences were set at*p<0.05 and **p<0.01.” left out

T1 sequence (Q92508 whole entry): as above

[Cl][Gd]([Cl])[Cl] [GdCI, Gadolinium chloride]
Yoda1-activated Ca2+ transients after pre-incubation with GdCI (native Piezo1Rs; 50 μM Yoda1 2 s, n=5, p=0.0073): 0.10±0.1
inhibition of Yoda1-activated Ca2+ transients (native Piezo1Rs; hiPSC microglia): 90%
Yoda1 activated Ca2+ transients after pre-incubation of GdCI (Piezo1Rs): 0.17±0.04
